Drawing on paper PMC4467886 (Archives of biochemistry and biophysics, 2008), this text covers Ki for three molecules.

Molecules are shown by their SMILES.

As usually defined, the Ki is a measure of affinity in units of concentration, obtained from inhibition or displacement. High values mean weaker binding, low ones tighter binding.

This assay concerns the target T1, 5,10-methenyltetrahydrofolate synthetase (MTHFS) (Mus musculus, UniProt Q9D110).
T1 sequence (Q9D110 2-203): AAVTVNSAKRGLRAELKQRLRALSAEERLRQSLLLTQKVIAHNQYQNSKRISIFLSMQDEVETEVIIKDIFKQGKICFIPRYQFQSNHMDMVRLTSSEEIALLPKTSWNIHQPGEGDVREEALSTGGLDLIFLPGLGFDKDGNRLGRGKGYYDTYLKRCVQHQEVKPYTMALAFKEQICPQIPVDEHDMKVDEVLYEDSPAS
Briefly: spectrophotometric MTHFS activity assay. The assay is classed as biochemical.
Regarding `Nc1nc2[nH]cc(CCc3ccc(C(=O)N[C@@H](CCC(=O)O)C(=O)O)cc3)c2c(=O)[nH]1` [Pemetrexed], the Ki amounted to 48 ± 11 µM.
Next, `Nc1nc2c(c(=O)[nH]1)C[C@@H](CCc1ccc(C(=O)N[C@@H](CCC(=O)O)C(=O)O)s1)CN2` [LY309887]: 6 ± 1 µM; `Nc1nc2c(c(=O)[nH]1)C[C@@H](CCc1ccc(C(=O)N[C@@H](CCC(=O)O)C(=O)O)cc1)CN2` [Lometrexol]: 9 ± 3 µM.
